# Laboratory results from patent US9981959B2, “Thiazolyl and oxazolyl urea, thiourea, guanidine and cyanoguanidine compounds as TrkA kinase inhibitors” (Array BioPharma Inc., priority 2012, dated 2018).
# Key:
# mTOR = biological target: T1, mTOR (Homo sapiens, UniProt P42345); assay: KinaseProfiler off-target kinase profiling; type: biochemical; conditions: 10 μM, ATP near Km
# T1 construct: purchased Millipore, Inc. (KinaseProfiler service)
# Experimental: (§1) A representative compound of the invention (Example 2) was tested for off-target kinase activity at a concentration of 10 μM by Millipore, Inc. in their KinaseProfiler™ service against all the kinases available in their full kinase panel. The compound was run in duplicate at a concentration of ATP near the Km for each individual kinase according to Millipore's specifications. The results are shown in Table B. Data are reported as percent of control (POC) and are the average of the two replicates.
# ALK = biological target: T2, ALK (Homo sapiens, UniProt Q9UM73); assay: KinaseProfiler off-target kinase profiling; type: biochemical; conditions: 10 μM, ATP near Km
# T2 construct: purchased Millipore (KinaseProfiler service)
# Experimental: as §1
# c-RAF = biological target: T3, c-RAF (Homo sapiens, UniProt P04049, Y340D/Y341D); assay: KinaseProfiler off-target kinase profiling; type: biochemical; conditions: 10 μM, ATP near Km
# T3 construct: purchased Millipore, Inc. (KinaseProfiler service)
# Experimental: as §1
# TrkB = biological target: T4, TrkB (Homo sapiens, UniProt Q16620); assay: KinaseProfiler off-target kinase profiling; type: biochemical; conditions: 10 μM, ATP near Km
# T4 construct: purchased Millipore, Inc. (KinaseProfiler service)
# Experimental: as §1
# TSSK2 = biological target: T5, TSSK2 (Homo sapiens, UniProt Q96PF2); assay: KinaseProfiler off-target kinase profiling; type: biochemical; conditions: 10 μM, ATP near Km
# T5 construct: purchased Millipore, Inc. (KinaseProfiler service)
# Experimental: as §1
# TAO1 = biological target: T6, TAO1 (Homo sapiens, UniProt Q7L7X3); assay: KinaseProfiler off-target kinase profiling; type: biochemical; conditions: 10 μM, ATP near Km
# T6 construct: purchased Millipore, Inc. (KinaseProfiler service)
# Experimental: as §1
# JAK2 = biological target: T7, JAK2 (Homo sapiens, UniProt O60674); assay: KinaseProfiler off-target kinase profiling; type: biochemical; conditions: 10 μM, ATP near Km
# T7 construct: purchased Millipore, Inc. (KinaseProfiler service)
# Experimental: as §1
# PDGFRbeta = biological target: T8, PDGFRbeta (Homo sapiens, UniProt P09619); assay: KinaseProfiler off-target kinase profiling; type: biochemical; conditions: 10 μM, ATP near Km
# T8 construct: purchased Millipore, Inc. (KinaseProfiler service)
# Experimental: as §1
# SRPK1 = biological target: T9, SRPK1 (Homo sapiens, UniProt Q96SB4); assay: KinaseProfiler off-target kinase profiling; type: biochemical; conditions: 10 μM, ATP near Km
# T9 construct: purchased Millipore, Inc. (KinaseProfiler service)
# Experimental: as §1
# ROCK-I = biological target: T10, ROCK-I (Homo sapiens, UniProt Q13464); assay: KinaseProfiler off-target kinase profiling; type: biochemical; conditions: 10 μM, ATP near Km
# T10 construct: purchased Millipore, Inc. (KinaseProfiler service)
# Experimental: as §1
# PKD1 = biological target: T11, PKD1 (Homo sapiens, UniProt Q15139); assay: KinaseProfiler off-target kinase profiling; type: biochemical; conditions: 10 μM, ATP near Km
# T11 construct: purchased Millipore, Inc. (KinaseProfiler service)
# Experimental: as §1
# IRR = biological target: T12, IRR (Homo sapiens, UniProt P14616); assay: KinaseProfiler off-target kinase profiling; type: biochemical; conditions: 10 μM, ATP near Km
# T12 construct: purchased Millipore, Inc. (KinaseProfiler service)
# Experimental: as §1
# IGF-1R = biological target: T13, IGF-1R (Homo sapiens, UniProt P08069); assay: KinaseProfiler off-target kinase profiling; type: biochemical; conditions: 10 μM, ATP near Km
# T13 construct: purchased Millipore, Inc. (KinaseProfiler service)
# Experimental: as §1
# MKK6 = biological target: T14, MKK6 (Homo sapiens, UniProt P52564); assay: KinaseProfiler off-target kinase profiling; type: biochemical; conditions: 10 μM, ATP near Km
# T14 construct: purchased Millipore, Inc. (KinaseProfiler service)
# Experimental: as §1
# EGFR = biological target: T15, EGFR (Homo sapiens, UniProt P00533); assay: KinaseProfiler off-target kinase profiling; type: biochemical; conditions: 10 μM, ATP near Km
# T15 construct: purchased Millipore, Inc. (KinaseProfiler service)
# Experimental: as §1
# Lyn = biological target: T16, Lyn (Homo sapiens, UniProt P07948); assay: KinaseProfiler off-target kinase profiling; type: biochemical; conditions: 10 μM, ATP near Km
# T16 construct: purchased Millipore, Inc. (KinaseProfiler service)
# Experimental: as §1
# MuSK = biological target: T17, MuSK (Homo sapiens, UniProt O15146); assay: KinaseProfiler off-target kinase profiling; type: biochemical; conditions: 10 μM, ATP near Km
# T17 construct: purchased Millipore, Inc. (KinaseProfiler service)
# Experimental: as §1
# CDK6/cyclinD3 = biological target: T18, CDK6/cyclinD3 (Homo sapiens, UniProt Q00534); assay: KinaseProfiler off-target kinase profiling; type: biochemical; conditions: 10 μM, ATP near Km
# T18 construct: purchased Millipore, Inc. (KinaseProfiler service)
# Experimental: as §1
# JNK2alpha2 = biological target: T19, JNK2alpha2 (Homo sapiens, UniProt P45984); assay: KinaseProfiler off-target kinase profiling; type: biochemical; conditions: 10 μM, ATP near Km
# T19 construct: purchased Millipore, Inc. (KinaseProfiler service)
# Experimental: as §1
# BrSK2 = biological target: T20, BrSK2 (Homo sapiens, UniProt Q8IWQ3); assay: KinaseProfiler off-target kinase profiling; type: biochemical; conditions: 10 μM, ATP near Km
# T20 construct: purchased Millipore (KinaseProfiler service)
# Experimental: as §1
# LIMK1 = biological target: T21, LIMK1 (Homo sapiens, UniProt P53667); assay: KinaseProfiler off-target kinase profiling; type: biochemical; conditions: 10 μM, ATP near Km
# T21 construct: purchased Millipore, Inc. (KinaseProfiler service)
# Experimental: as §1
# Ret = biological target: T22, Ret (Homo sapiens, UniProt P07949); assay: KinaseProfiler off-target kinase profiling; type: biochemical; conditions: 10 μM, ATP near Km
# T22 construct: purchased Millipore, Inc. (KinaseProfiler service)
# Experimental: as §1
# EphA1 = biological target: T23, EphA1 (Homo sapiens, UniProt P21709); assay: KinaseProfiler off-target kinase profiling; type: biochemical; conditions: 10 μM, ATP near Km
# T23 construct: purchased Millipore, Inc. (KinaseProfiler service)
# Experimental: as §1
# MAPKAP-K3 = biological target: T24, MAPKAP-K3 (Homo sapiens, UniProt Q16644); assay: KinaseProfiler off-target kinase profiling; type: biochemical; conditions: 10 μM, ATP near Km
# T24 construct: purchased Millipore, Inc. (KinaseProfiler service)
# Experimental: as §1
# Ros = biological target: T25, Ros (Homo sapiens, UniProt P08922); assay: KinaseProfiler off-target kinase profiling; type: biochemical; conditions: 10 μM, ATP near Km
# T25 construct: purchased Millipore, Inc. (KinaseProfiler service)
# Experimental: as §1
# CAMK1d = biological target: T26, CAMK1d (Homo sapiens, UniProt Q8IU85); assay: KinaseProfiler off-target kinase profiling; type: biochemical; conditions: 10 μM, ATP near Km
# T26 construct: purchased Millipore (KinaseProfiler service)
# Experimental: as §1
# PAK4 = biological target: T27, PAK4 (Homo sapiens, UniProt O96013); assay: KinaseProfiler off-target kinase profiling; type: biochemical; conditions: 10 μM, ATP near Km
# T27 construct: purchased Millipore, Inc. (KinaseProfiler service)
# Experimental: as §1
# TrkA [1] = biological target: T28, TrkA (Homo sapiens, UniProt P04629); assay: KinaseProfiler off-target kinase profiling; type: biochemical; parameters: purchased Millipore, Inc. (KinaseProfiler service); conditions: 10 μM, ATP near Km
# Experimental: as §1, with “specifications.” for “specifications. The results are shown in Table B. Data are reported as percent of control (POC) and are the average of the two replicates.”
# TrkA [2] = biological target: T28, TrkA; assay: TrkA LanthaScreen Eu Kinase Binding Assay; parameters: 6HIS tagged cytoplasmic domain from Invitrogen, Cat. No. PV3144; purchased Invitrogen PV3144; conditions: averaged IC50; TR-FRET binding, 60 min, 22° C.; read-out: TrkA enzyme IC50
# Experimental: TrkA binding activity was determined in a TrkA LanthaScreen™ Eu Kinase Binding Assay. 5 nM His-tagged recombinant human TrkA (6HIS tagged cytoplasmic domain from Invitrogen, Cat. No. PV3144) was incubated with 4 nM Alexa-Fluor® Tracer 236 (Invitrogen Cat. No. PV5592), 2 nM biotinylated anti-His (Invitrogen Cat. No. PV6090), and 2 nM europium-labeled Streptavidin (Invitrogen Cat. No. PV5899), in buffer (25 mM MOPS, pH 7.5, 5 mM MgCl2, 0.005% Triton X-100). Three fold serial dilutions of compounds of the invention in DMSO were added to a final percentage of 2% DMSO. After 60-minute incubation at 22° C., the reaction was measured using the EnVision mutlimode plate reader (PerkinElmer) via TR-FRET dual wavelength detection at […]. The percent of control was calculated using a ratiometric emission factor. The IC50 values were determined by fitting a four parameter model to the percent of control data.
# Table A provides averaged IC50 values for compounds of the invention when tested in the assay of Example A, where A represents an averaged IC50 value <100 nM; and B represents an averaged IC50 value from 100 to 1,000 nM.
# T7 sequence (O60674 whole entry): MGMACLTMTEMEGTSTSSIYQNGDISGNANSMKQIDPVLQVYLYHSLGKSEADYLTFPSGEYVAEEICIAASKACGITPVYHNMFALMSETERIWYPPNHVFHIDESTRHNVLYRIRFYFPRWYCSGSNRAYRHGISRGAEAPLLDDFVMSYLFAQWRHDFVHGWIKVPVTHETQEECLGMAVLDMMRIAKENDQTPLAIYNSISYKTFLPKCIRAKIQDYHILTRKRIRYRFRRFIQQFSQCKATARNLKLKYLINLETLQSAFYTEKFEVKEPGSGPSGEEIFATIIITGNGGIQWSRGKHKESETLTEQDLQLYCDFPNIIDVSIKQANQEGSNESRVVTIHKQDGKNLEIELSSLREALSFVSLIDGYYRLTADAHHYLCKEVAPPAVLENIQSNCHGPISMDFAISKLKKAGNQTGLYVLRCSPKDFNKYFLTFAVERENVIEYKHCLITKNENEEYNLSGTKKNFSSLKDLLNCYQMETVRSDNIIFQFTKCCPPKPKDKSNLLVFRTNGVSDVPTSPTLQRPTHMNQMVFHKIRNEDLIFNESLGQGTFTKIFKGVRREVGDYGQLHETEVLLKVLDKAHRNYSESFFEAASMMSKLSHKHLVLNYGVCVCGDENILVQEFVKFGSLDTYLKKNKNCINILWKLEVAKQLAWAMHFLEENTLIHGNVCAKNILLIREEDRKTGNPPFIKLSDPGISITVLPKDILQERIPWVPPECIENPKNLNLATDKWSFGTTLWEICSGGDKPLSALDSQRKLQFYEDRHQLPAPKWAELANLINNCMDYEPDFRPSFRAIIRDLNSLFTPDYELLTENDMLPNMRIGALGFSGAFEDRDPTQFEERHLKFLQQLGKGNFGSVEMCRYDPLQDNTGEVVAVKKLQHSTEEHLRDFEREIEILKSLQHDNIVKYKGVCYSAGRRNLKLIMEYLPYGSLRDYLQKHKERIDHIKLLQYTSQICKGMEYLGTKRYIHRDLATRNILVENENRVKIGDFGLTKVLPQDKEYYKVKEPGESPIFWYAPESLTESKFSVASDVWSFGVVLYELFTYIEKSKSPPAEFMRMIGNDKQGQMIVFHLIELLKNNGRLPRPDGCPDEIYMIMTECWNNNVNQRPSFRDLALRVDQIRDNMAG
# T25 sequence (P08922 28-2347): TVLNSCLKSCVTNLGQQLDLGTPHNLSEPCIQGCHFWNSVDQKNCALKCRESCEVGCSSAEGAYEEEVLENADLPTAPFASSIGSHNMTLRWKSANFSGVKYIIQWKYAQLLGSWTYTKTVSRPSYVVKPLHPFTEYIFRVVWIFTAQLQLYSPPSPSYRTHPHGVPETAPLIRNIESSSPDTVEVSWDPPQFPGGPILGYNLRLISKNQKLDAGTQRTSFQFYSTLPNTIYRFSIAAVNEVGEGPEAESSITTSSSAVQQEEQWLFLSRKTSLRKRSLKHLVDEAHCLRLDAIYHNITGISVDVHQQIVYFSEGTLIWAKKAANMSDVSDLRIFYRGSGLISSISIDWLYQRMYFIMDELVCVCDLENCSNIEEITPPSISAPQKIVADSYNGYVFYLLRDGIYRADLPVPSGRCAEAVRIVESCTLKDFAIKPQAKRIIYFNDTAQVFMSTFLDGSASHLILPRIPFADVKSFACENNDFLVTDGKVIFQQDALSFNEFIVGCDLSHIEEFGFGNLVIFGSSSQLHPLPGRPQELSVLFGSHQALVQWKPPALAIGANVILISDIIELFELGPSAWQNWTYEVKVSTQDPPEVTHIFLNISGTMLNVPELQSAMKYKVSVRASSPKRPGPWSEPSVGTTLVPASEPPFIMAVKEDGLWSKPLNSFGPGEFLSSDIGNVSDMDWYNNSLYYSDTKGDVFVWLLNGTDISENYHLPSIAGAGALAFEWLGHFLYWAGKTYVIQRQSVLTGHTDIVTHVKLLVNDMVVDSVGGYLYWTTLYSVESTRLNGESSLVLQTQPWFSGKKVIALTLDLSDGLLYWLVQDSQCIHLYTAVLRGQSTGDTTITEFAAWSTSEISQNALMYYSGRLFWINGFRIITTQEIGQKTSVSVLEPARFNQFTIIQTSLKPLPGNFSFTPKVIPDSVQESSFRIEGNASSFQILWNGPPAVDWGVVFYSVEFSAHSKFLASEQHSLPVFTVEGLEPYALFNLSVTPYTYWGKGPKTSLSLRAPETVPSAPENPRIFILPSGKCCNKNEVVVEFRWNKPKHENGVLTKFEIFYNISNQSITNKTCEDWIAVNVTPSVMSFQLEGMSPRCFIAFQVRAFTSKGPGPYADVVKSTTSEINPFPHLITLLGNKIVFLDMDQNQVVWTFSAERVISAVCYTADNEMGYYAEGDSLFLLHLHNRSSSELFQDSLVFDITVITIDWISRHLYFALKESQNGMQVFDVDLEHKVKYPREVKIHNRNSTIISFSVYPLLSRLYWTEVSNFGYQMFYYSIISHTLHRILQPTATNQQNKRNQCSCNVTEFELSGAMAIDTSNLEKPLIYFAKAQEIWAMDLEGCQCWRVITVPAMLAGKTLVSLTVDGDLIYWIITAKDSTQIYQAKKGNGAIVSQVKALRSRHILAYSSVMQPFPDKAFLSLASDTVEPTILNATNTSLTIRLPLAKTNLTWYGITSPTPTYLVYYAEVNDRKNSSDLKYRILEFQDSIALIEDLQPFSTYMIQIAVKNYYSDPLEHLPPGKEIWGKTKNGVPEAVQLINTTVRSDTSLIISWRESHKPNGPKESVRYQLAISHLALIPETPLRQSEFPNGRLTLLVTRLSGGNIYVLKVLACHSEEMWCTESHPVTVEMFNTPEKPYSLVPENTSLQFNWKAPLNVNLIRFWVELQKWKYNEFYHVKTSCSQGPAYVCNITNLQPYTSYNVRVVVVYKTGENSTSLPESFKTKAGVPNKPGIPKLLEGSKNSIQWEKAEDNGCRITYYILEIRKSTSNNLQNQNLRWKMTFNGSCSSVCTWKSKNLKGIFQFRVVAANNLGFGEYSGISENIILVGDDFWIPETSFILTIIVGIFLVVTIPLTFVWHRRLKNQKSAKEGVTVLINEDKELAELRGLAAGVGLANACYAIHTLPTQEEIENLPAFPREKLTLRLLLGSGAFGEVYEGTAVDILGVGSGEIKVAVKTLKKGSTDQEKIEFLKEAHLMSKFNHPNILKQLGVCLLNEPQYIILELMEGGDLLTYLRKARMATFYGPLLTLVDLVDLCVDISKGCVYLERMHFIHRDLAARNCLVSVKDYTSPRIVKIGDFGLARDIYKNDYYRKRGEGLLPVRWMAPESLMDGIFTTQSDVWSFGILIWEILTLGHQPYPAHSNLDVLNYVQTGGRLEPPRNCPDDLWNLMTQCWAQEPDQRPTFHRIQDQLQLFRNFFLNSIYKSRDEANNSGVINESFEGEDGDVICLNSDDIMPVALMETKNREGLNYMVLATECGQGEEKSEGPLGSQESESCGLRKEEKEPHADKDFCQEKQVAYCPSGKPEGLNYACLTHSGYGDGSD
# T20 sequence (Q8IWQ3 whole entry): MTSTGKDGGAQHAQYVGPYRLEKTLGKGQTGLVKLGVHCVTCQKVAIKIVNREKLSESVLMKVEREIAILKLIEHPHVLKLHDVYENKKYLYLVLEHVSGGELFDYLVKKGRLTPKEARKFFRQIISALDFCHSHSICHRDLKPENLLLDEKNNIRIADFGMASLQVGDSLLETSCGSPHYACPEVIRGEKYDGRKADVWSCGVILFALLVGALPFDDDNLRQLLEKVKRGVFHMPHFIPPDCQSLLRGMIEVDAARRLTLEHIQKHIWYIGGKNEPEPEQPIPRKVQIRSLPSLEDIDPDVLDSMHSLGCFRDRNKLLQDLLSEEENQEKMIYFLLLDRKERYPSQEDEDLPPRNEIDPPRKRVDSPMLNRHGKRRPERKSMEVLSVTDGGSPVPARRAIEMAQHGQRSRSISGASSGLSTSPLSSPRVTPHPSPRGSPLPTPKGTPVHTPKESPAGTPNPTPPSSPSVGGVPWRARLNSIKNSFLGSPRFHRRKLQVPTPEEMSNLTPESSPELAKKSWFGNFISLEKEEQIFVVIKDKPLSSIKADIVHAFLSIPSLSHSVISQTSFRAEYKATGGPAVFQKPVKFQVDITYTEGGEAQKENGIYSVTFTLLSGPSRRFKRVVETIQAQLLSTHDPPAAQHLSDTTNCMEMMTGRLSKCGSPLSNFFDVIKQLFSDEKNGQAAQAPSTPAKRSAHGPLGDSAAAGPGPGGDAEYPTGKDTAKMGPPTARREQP
# T24 sequence (Q16644 whole entry): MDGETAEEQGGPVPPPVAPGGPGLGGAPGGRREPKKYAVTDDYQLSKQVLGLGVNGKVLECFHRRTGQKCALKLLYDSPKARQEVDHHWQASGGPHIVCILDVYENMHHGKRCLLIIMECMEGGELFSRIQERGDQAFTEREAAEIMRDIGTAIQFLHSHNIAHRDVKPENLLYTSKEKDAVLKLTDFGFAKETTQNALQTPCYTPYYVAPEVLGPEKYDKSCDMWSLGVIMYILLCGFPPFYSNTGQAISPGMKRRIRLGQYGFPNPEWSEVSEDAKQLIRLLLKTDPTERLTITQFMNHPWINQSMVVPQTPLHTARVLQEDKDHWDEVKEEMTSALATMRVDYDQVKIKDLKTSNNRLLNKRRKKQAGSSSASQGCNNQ
# T26 sequence (Q8IU85 whole entry): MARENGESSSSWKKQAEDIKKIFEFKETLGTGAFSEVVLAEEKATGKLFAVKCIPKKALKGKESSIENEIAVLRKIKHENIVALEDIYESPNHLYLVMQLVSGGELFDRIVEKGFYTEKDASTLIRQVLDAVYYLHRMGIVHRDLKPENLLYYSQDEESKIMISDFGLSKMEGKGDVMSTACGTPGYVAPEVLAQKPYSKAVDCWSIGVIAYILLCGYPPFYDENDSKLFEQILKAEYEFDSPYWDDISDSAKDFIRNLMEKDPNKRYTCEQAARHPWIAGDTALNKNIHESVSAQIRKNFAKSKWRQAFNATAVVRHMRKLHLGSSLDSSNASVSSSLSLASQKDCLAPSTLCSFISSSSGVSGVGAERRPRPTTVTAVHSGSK
smiles,measurement,setting,value
"Cc1c(-c2cnn(C)c2)nn(-c2ccccc2)c1NC(=O)Nc1sc(C(F)(F)F)nc1-c1ccccc1 [Example 2, 1-(1′,4-dimethyl-1-phenyl-1H,1′H-[3,4′-bipyrazol]-5-yl)-3-(4-phenyl-2-(trifluoromethyl)thiazol-5-yl)urea]",Avg POC,mTOR,92.5 POC
same,Avg POC,ALK,108 POC
same,Avg POC,c-RAF,96.5 POC
same,Avg POC,TrkB,3 POC
same,Avg POC,TSSK2,142.5 POC
same,Avg POC,TAO1,103.5 POC
same,Avg POC,JAK2,147.5 POC
same,Avg POC,PDGFRbeta,162 POC
same,Avg POC,SRPK1,114 POC
same,Avg POC,ROCK-I,113 POC
same,Avg POC,PKD1,97.5 POC
same,Avg POC,IRR,109 POC
same,Avg POC,IGF-1R,82.5 POC
same,Avg POC,MKK6,134 POC
same,Avg POC,EGFR,111 POC
same,Avg POC,Lyn,103.5 POC
same,Avg POC,MuSK,88 POC
same,Avg POC,CDK6/cyclinD3,119.5 POC
same,Avg POC,JNK2alpha2,97.5 POC
same,Avg POC,BrSK2,116.5 POC
same,Avg POC,LIMK1,102 POC
same,Avg POC,Ret,91.5 POC
same,Avg POC,EphA1,81.5 POC
same,Avg POC,MAPKAP-K3,116 POC
same,Avg POC,Ros,96.5 POC
same,Avg POC,CAMK1d,132.5 POC
same,Avg POC,PAK4,103.5 POC
same,Avg POC,TrkA [1],−1 POC
same,IC50,TrkA [2],< 100 nM
